Experiments:
LTA4 hydrolase [1] = target: T1, LTA4 hydrolase (Cavia porcellus, UniProt P19602); experiment: LTA4 hydrolase inhibition, LTB4 produced from LTA4 (guinea pig lung enzyme preparation), measured by HPLC; assay type: biochemical; settings: LTA4 63 μM; HEPES 50 mM, pH 7.8; enzyme preparation 0.4-0.6 mg protein; DTT 3 mM; 37° C., one minute; read-out: IC50 (concentration required to inhibit LTA4 hydrolase by 50%)
T1 construct: prepared by extracting roughly from guinea pig lung; from tissue; host or cells: guinea pig (Hartley) lung, 100,000×g supernatant, 40-70% ammonium sulfate fraction, dialyzed
T1 sequence (P19602 1-611): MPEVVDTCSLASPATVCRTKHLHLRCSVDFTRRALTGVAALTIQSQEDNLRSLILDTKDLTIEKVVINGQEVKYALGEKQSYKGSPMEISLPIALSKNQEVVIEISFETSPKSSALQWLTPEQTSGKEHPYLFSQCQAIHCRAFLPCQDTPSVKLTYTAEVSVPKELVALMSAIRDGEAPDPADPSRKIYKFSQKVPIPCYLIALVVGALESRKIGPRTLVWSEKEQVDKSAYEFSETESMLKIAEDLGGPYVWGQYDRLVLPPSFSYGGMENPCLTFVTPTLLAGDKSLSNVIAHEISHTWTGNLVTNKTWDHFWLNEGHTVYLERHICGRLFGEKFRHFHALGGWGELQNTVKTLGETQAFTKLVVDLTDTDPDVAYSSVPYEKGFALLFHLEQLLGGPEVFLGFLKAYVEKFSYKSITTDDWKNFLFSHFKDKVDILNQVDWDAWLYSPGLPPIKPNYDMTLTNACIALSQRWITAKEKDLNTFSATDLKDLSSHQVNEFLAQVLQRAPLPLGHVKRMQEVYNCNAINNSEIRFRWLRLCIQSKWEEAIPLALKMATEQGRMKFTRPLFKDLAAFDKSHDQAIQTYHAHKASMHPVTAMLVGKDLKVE
Procedure: Izumi et al. had reported a method of measuring LTA4 hydrolase activity by measuring an amount of LTB4 produced by an enzymatic reaction using LTA4 as a substrate (Biochem. Biophys. Res. Commun., 135, 139-145 (1986)). Effects of the present compounds on LTA4 hydrolase were examined according to the method described in the literature.
An enzyme preparation used in this pharmacological test was prepared by extracting roughly from guinea pig lung by the following method, according to the method of Izumi et al. (Biochem. Biophys. Res. Commun., 135, 139-145 (1986)) and the method of Evans et al. (Biochem. Biophys. Acta, 840, 43-50 (1985)).
Lungs were excised from Hartley guinea pigs (body weight: 330 g). The lungs were homogenized in phosphoric acid buffer (50 mM, pH 7.4, containing 1 mM ethylenediaminetetraacetic acid (EDTA) and 1 mM dithiothreitol (DTT)) having weight three times that of the lungs under ice-cooling. The homogenate was centrifuged at low speed (800×g) for 20 minutes, centrifuged at high speed (10,000×g) for 20 minutes and ultraccntrifugcd (100,000×g) for 60 minutes to give a supernatant. The supernatant was brought to 40% saturation by adding a saturated aqueous ammonium sulfate solution (pH 7.0-7.2, containing 1 mM DTT) dropwise under ice-cooling and centrifuged at high speed (10,000×g) for 20 minutes. The resulting supernatant was brought to 70% saturation by adding a saturated aqueous ammonium sulfate solution (pH 7.0-7.2, containing 1 mM DTT) dropwise and centrifuged at high speed (10,000×g) for 20 minutes. The obtained pellet was dissolved in 2 ml of Tris-acetic acid buffer (20 mM, pH 7.8, containing 1 mM DTT) and dialyzed in 2 liters of the solution to give the enzyme preparation.
LTA4 used, which is the substrate, was prepared by hydrolyzing LTA4 methyl ester and dissolved in ethanol.
In order to examine effects of the present compounds on the enzyme preparation, reactions were performed under the following condition using mixed solutions consisting of the composition shown in Table 1. […]
HEPES buffer 50 mM, pH 7.8
Enzyme preparation 0.4-0.6 mg protein
The above-mentioned solution (50 μl) was incubated at 37° C. for one minute. To the reaction mixture was added 100 μl of a mixed liquid of acetonitrile-ethanol-acetic acid (150:50:3, volume ratio) under ice-cooling. The mixture was allowed to stand at -20° C. for 30 minutes and centrifuged at high speed (10,000×g) for five minutes to give a supernatant. An amount of LTB4 produced in the supernatant was measured by high-speed liquid chromatography.
The degree of the inhibitory effect of each test compound on LTA4 hydrolase is expressed by the inhibition rate calculated by the following equation. [formula] Results

LTA4 hydrolase [2] = settings: JP-A 2-134375; J. Med. Chem., 37, 3197-3199 (1994); cited from earlier work
[3] = tested on: arthritis in a collagen-induced arthritis model; settings: J. Med. Chem., 37, 3197-3199 (1994); cited from earlier work

| SMILES | IC50 (LTA4 hydrolase [1]) [nM] | LTA4 hydrolase inhibitory activity (reported, in words) (LTA4 hydrolase [2]) | inhibition of sideration of arthritis (in words) [3] |
| --- | --- | --- | --- |
| CN(C)c1ccc(CSC[C@H](NC(=O)C(CS)CCc2ccccc2)C(=O)O)cc1 (single isomer, unassigned) [Compound No. 3-27, (2R)-3-[4-(N,N-Dimethylamino)benzylthio]-2-[(2R or 2S)-2-phenetyl-3-mercaptopropionylamino]propionic acid] | 3800 |  |  |
| CCN(CC)c1ccc(CSC[C@H](NC(=O)[C@H](C)CS)C(=O)O)cc1 [Compound No. 3-9, (2R)-3-[4-(N,N-Diethylamino)benzylthio]-2-[(2S)-3-mercapto-2-methylpropionyl]aminopropionic acid] | 900 |  |  |
| CC(C)C(CS)C(=O)N[C@@H](CSCc1ccc(N(C)C)cc1)C(=O)O (mixture of isomers) [Compound No. 3-24, (2R)-3-[4-(N,N-Dimethylamino)benzylthio]-2-[(2RS)-2-isopropyl-3-mercaptopropionylamino]propionic acid] | 1100 |  |  |
| O=C(O)c1cccc(C2CO2)c1 (stereo not shown) [3-Oxiranyl benzoic acid] |  | LTA4 hydrolase inhibitory activity |  |
| C[C@@H](CS)C(=O)N[C@@H](CSCc1ccc(N(C)C)cc1)C(=O)O [Compound No. 3-21, (2R)-3-[4-(N,N-Dimethylamino)benzylthio]-2-[(2R)-3-mercapto-2-methylpropionylamino]propionic acid] | 1500 |  |  |
| CCOC(=O)[C@H](CSCc1ccc(N(C)C)cc1)NC(=O)[C@H](C)CS [Compound No. 8-1, Ethyl (2R)-3-[4-(N,N-dimethylamino)benzylthio]-2-[(2S)-3-mercapto-2-methylpropionylamino]propionate] | 590 |  |  |
| O=C(O)C1(c2ccc3c(c2)OC[C@H](Cc2ccc(-c4ccccc4)cc2)[C@H]3O)CCCC1 [(+)-1-(3S, 4R)-[3-(4-phenylbenzyl)-4-hydroxychroman-7-yl]cyclopentanecarboxylic acid] |  | LTA4 hydrolase inhibitory activity | inhibit sideration of arthritis |
| C[C@H](S)C(=O)N[C@@H](CSCc1ccc(N(C)C)cc1)C(=O)O [Compound No. 3-19, (2R)-3-[4-(N,N-Dimethylamino)benzylthio]-2-[(2S)-2-mercaptopropionylamino]propionic acid] | 5600 |  |  |

Further compounds by falling IC50 (LTA4 hydrolase [1]), results first:

| IC50 (LTA4 hydrolase [1]) [nM] | SMILES | LTA4 hydrolase inhibitory activity (reported, in words) (LTA4 hydrolase [2]) | inhibition of sideration of arthritis (in words) [3] |
| --- | --- | --- | --- |
| 500 | CN(C)c1ccc(CSC[C@H](NC(=O)C(CS)CCc2ccccc2)C(=O)O)cc1 (single isomer, unassigned) [Compound No. 3-26, (2R)-3-[4-(N,N-Dimethylamino)benzylthio]-2-[(2S or 2R)-2-phenetyl-3-mercaptopropionylamino]propionic acid] |  |  |
| 400 | CCC(CS)C(=O)N[C@@H](CSCc1ccc(N(C)C)cc1)C(=O)O (mixture of isomers) [Compound No. 3-22, (2R)-3-[4-(N,N-Dimethylamino)benzylthio]-2-[(2RS)-2-ethyl-3-mercaptopropionylamino]propionic acid] |  |  |
| 290 | CCCC(CS)C(=O)N[C@@H](CSCc1ccc(N(C)C)cc1)C(=O)O (mixture of isomers) [Compound No. 3-23, (2R)-3-[4-(N,N-Dimethylamino)benzylthio]-2-[(2RS)-3-mercapto-2-propylpropionylamino]propionic acid] |  |  |
| 240 | C[C@H](CS)C(=O)N[C@@H](CSCc1ccc(N(C)C)cc1)C(=O)O [Compound No. 3-1, (2R)-3-[4-(N,N-Dimethylamino)benzylthio]-2-[(2S)-3-mercapto-2-methylpropionylamino]propionic acid] |  |  |

— patent US5872281A, “Amino acid derivative having N,N-dialkylaminophenyl group” (Santen Pharmaceutical Co., Ltd., priority 1995, dated 1999)
